Columns and labels:
[1] = target: T1, Sodium-dependent noradrenaline transporter (Homo sapiens, UniProt P23975); assay: Inhibition of recombinant human norepinephrine transporter
[2] = system: Rattus norvegicus; assay: Toxicity in rat central nervous system assessed as side effects up to 100 mg/kg, po measured from 15 mins through 6 hrs by Irwin test; type: organism-based; set-up: dose 100 mg/kg, route oral; conditions: in vivo
[3] = target: Muscarinic acetylcholine receptor M2 (Homo sapiens, UniProt P08172); assay: Inhibition of muscarinic M2 receptor
Sequence of Muscarinic acetylcholine receptor M2 (P08172 whole entry): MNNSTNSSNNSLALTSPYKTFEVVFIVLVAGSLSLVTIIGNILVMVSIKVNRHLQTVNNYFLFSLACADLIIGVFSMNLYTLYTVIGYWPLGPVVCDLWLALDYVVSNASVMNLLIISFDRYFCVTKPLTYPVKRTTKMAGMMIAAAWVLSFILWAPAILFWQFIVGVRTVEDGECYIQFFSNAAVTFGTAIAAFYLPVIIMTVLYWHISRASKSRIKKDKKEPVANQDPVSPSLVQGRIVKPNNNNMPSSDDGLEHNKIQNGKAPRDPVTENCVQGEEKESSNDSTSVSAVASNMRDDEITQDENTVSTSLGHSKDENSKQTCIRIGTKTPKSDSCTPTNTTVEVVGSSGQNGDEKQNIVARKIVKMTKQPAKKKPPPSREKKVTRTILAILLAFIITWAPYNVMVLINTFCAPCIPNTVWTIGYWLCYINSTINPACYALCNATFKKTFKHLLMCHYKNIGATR

[4] = target: Poly [ADP-ribose] polymerase 1 (Homo sapiens, UniProt P09874); assay: Inhibition of human PARP1
Sequence of Poly [ADP-ribose] polymerase 1 (P09874 whole entry): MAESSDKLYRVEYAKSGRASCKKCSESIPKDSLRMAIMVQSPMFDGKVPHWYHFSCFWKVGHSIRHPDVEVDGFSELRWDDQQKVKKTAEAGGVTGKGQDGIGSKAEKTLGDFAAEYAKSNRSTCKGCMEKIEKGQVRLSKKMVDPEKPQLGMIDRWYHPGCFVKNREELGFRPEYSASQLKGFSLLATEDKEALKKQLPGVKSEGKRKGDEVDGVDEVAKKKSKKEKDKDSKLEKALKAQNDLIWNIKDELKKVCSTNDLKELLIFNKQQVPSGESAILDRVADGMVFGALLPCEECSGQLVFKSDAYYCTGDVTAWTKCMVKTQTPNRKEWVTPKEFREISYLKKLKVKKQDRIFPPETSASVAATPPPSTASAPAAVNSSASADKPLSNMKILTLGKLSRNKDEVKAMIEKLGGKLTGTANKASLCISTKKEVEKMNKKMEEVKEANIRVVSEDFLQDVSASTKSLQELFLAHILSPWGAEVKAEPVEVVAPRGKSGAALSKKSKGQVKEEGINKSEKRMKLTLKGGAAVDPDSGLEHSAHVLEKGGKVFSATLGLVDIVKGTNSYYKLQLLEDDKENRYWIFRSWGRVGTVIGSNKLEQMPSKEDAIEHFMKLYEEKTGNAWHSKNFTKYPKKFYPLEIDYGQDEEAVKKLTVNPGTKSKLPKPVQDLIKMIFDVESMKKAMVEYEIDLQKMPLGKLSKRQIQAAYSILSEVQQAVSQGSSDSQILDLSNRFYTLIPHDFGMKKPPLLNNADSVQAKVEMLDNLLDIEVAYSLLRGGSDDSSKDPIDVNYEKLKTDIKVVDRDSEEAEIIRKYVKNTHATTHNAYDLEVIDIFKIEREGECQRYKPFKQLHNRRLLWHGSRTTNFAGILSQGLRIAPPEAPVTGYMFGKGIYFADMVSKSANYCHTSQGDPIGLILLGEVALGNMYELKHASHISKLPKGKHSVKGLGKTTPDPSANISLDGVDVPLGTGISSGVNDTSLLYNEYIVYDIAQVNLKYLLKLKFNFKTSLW

[5] = target: T2, Sodium-dependent dopamine transporter (Homo sapiens, UniProt Q01959); assay: Inhibition of recombinant human dopamine transporter
T2 sequence (Q01959 whole entry): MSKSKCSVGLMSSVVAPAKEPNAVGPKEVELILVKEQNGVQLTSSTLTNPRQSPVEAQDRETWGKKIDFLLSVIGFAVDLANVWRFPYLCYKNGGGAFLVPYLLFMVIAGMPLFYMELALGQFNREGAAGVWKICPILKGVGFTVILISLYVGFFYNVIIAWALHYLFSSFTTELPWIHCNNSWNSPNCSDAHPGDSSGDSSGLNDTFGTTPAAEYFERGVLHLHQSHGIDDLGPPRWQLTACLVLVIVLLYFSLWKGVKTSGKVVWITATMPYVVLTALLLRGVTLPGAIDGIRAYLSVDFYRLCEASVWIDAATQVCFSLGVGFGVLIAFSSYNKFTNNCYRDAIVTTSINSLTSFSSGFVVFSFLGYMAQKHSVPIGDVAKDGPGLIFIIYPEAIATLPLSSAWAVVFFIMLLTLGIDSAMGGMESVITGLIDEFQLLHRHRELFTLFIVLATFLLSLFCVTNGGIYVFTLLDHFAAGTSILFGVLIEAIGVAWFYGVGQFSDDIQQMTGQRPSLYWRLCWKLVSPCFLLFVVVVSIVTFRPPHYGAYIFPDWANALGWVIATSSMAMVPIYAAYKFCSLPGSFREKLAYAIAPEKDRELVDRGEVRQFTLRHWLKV

[6] = system: Rhesus monkey; assay: Toxicity in monkey up to 28 days; type: organism-based, Macaca mulatta; conditions: in vivo, 672 h
[7] = target: T3, Histamine H3 receptor (Homo sapiens, UniProt Q9Y5N1); assay: Inverse agonist activity at human histamine H3 receptor assessed as inhibition of R-alpha-methylhistamine induced [35S]GTPgammaS binding; type: functional
T3 sequence (Q9Y5N1 whole entry): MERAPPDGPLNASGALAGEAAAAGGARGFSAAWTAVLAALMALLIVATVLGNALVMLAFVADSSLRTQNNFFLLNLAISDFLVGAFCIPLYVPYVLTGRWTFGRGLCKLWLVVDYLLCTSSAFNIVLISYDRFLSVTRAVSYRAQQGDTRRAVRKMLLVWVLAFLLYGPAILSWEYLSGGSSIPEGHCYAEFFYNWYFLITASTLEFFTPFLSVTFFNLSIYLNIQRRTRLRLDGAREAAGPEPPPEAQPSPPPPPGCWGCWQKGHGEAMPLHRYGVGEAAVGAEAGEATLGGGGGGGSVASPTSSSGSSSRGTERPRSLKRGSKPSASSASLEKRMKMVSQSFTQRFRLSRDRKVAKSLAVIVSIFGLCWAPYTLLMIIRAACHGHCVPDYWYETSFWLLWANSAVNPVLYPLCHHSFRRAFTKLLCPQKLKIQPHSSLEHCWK

[8] = Dissociation constant, pKa of the compound; type: physicochemical
[9] = system: Salmonella typhimurium; assay: Mutagenic activity in Salmonella Typhimurium by Ames test; type: toxicity, organism-based; conditions: salmonella enterica subsp. enterica serovar typhimurium
[10] = Mutagenic activity in human peripheral blood lymphocytes by micronucleus test in absence metabolic activation; type: toxicity, cell-based; conditions: lymphocyte
[11] = system: Rhesus monkey; assay: Toxicity in monkey assessed as changes in cardiovascular function after 28 days; type: organism-based, Macaca mulatta, Heart; conditions: in vivo, 672 h
[12] = target: T4, Histamine H3 receptor (Rattus norvegicus, UniProt Q9QYN8); assay: Inverse agonist activity at rat histamine H3 receptor assessed as inhibition of R-alpha-methylhistamine induced [35S]GTPgammaS binding; type: functional
T4 sequence (Q9QYN8 whole entry): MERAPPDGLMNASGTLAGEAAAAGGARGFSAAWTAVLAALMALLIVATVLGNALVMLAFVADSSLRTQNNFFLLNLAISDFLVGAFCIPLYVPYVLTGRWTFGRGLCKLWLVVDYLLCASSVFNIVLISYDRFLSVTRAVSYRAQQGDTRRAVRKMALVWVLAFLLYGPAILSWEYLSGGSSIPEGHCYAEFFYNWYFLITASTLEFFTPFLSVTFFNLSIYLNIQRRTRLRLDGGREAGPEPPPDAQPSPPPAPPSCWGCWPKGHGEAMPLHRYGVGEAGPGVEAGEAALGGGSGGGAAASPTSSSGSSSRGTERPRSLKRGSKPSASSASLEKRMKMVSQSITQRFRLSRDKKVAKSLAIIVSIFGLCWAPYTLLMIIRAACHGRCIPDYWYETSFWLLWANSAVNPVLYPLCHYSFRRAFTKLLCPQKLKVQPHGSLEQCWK

[13] = target: T4, Histamine H3 receptor; assay: Antagonist activity at histamine H3 receptor in rat cortical membrane; type: functional, cell membranes
[14] = target: T3, Histamine H3 receptor; assay: Displacement of [3H]NAMH from human histamine H3 receptor expressed in CHO cells; type: cell-based
[15] = Aqueous solubility of the compound at pH 7.4; type: physicochemical
[16] = system: Rattus norvegicus; assay: Inhibition of RAMH-induced dipsogenia in Long Evans rat administered as po 15 mins prior to RAMH challenge; type: functional
[17] = Drug level in rat brain at 100 mg/kg, po administered after 1 hr post dosing; type: ADME, organism-based; set-up: dose 100 mg/kg, route oral; conditions: read-out: Drug uptake
[18] = system: Rattus norvegicus; assay: Toxicity in rat central nervous system assessed as changes in behavioral response at 10 to 300 mg/kg, po measured from 15 mins through 6 hrs by Irwin test; type: organism-based; set-up: dose 10-300 mg/kg, route oral; conditions: in vivo
[19] = Distribution coefficient log D of the compound at pH 7.4; type: physicochemical; conditions: octanol/water
[20] = system: Rhesus monkey; assay: Toxicity in monkey assessed as changes in respiratory function after 28 days; type: organism-based, Macaca mulatta; conditions: in vivo, 672 h
[21] = target: Alpha-1A adrenergic receptor (Homo sapiens, UniProt P35348); assay: Inhibition of adrenergic alpha 1A receptor
Sequence of Alpha-1A adrenergic receptor (P35348 whole entry): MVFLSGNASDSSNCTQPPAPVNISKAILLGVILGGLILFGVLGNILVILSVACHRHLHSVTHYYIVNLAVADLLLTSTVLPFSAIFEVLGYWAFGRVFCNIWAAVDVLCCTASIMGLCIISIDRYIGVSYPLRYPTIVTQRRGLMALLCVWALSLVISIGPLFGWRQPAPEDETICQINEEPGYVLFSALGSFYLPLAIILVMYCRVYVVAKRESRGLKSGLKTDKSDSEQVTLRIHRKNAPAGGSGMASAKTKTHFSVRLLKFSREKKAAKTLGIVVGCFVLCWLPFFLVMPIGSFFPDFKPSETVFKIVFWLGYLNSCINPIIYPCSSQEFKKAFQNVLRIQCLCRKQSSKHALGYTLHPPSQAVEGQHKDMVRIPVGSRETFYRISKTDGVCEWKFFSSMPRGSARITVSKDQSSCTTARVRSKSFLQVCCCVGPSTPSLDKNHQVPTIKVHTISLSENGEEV

[22] = target: T4, Histamine H3 receptor; assay: Displacement of [3H]NAMH from rat histamine H3 receptor expressed in CHO cells; type: cell-based
[23] = Mutagenic activity in human peripheral blood lymphocytes by micronucleus test in presence metabolic activation; type: toxicity, cell-based; conditions: lymphocyte
[24] = Aqueous solubility of the compound at pH 2; type: physicochemical
[25] = system: Rattus norvegicus; assay: Inhibition of RAMH-induced dipsogenia in ip dosed Long Evans rat administered 15 mins prior to RAMH challenge; type: functional
[26] = Apparent permeability across human Caco2 cell membrane; type: ADME, cell-based; conditions: Caco-2
[27] = target: T1, Sodium-dependent noradrenaline transporter; assay: Inhibition of norepinephrine transporter
[28] = Inhibition of PDE3
[29] = target: T2, Sodium-dependent dopamine transporter; assay: Inhibition of dopamine transporter
[30] = Mutagenic activity in Salmonella Typhimurium by Ames test in presence of rat liver S9 fraction; type: toxicity, subcellular; conditions: salmonella enterica subsp. enterica serovar typhimurium
[31] = species: Rattus norvegicus; assay: Toxicity in rat up to 28 days; type: organism-based; conditions: in vivo, 672 h

T1 sequence (P23975 whole entry): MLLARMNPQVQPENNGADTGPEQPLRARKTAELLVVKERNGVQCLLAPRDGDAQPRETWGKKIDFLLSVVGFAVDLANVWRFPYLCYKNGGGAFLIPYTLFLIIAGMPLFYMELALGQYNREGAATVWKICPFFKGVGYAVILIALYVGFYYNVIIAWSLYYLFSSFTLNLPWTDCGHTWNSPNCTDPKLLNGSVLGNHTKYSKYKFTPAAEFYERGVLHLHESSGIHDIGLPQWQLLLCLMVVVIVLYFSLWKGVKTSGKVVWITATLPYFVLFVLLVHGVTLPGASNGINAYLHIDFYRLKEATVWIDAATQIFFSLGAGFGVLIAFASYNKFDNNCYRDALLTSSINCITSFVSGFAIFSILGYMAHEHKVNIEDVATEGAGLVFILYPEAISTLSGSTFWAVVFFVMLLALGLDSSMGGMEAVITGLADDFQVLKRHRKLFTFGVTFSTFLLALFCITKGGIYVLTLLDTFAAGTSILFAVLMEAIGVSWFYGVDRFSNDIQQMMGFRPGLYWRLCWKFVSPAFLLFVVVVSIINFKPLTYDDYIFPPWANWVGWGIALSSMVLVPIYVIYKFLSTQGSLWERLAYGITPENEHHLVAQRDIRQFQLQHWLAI

IC50 [1]: 17.5 µM
Ki [3]: 3.7 µM
IC50 [4]: > 30 µM
IC50 [5]: 9.4 µM
EC50 [7]: 1.1 nM
pKa [8]: 10.2
EC50 [12]: 2 nM
Ki [13]: 2.7 nM
Ki [14]: 2 nM
solubility [15]: > 2000 µg/mL
concentration at 1 h [17]: 36 µM
logD [19]: 0.6
Ki [21]: 9.8 µM
Ki [22]: 7.2 nM
solubility [24]: > 2000 µg/mL
Papp [26]: 13.5 ×10⁻⁶ cm/s
Ki [27]: 10 µM
IC50 [28]: 15 µM
Ki [29]: 11 µM
SMILES: C[C@@H]1CCCN1CCCOc1ccc(-c2ccc(=O)[nH]n2)cc1 [IRDABISANT]
Activity [2]: Non-toxic
Activity [6]: Non-toxic
Activity [9]: Non-toxic
Activity [10]: Non-toxic
Activity [11]: Non-toxic
ED50 [16]: 0.01 mg/kg
Activity [18]: Non-toxic
Activity [20]: Non-toxic
Activity [23]: Non-toxic
ED50 [25]: 0.06 mg/kg
Activity [30]: Non-toxic
Activity [31]: Non-toxic

— ChEMBL document CHEMBL1811886 (J Med Chem, 2011)
